Patent publication US20260070945A1, “MACROCYCLIC IMMUNOMODULATORS” (Bristol-Myers Squibb Company, priority 2022, published 2026)
Where a SMILES comes first, the peptide text is derived from it. Bridges are numbered along the chain shown (N, C = ends). [ ]: non-standard residue; d: D form. The star is where a group is joined. Phe(4-COOH) = N[C@@H](Cc1ccc(C(=O)O)cc1)C(=O)O; Bip = N[C@@H](Cc1ccc(-c2ccccc2)cc1)C(=O)O; 4Pal = N[C@@H](Cc1ccncc1)C(=O)O; Cha = N[C@@H](CC1CCCCC1)C(=O)O; Carboxymethyl = O=C(O)C*; NMeA = CN[C@@H](C)C(=O)O; Orn = NCCC[C@H](N)C(=O)O; Aun = NCCCCCCCCCCC(=O)O; Dab = NCC[C@H](N)C(=O)O; Dap = NC[C@H](N)C(=O)O; AEEA = NCCOCCOCC(=O)O

biological target: T1, PD-1/PD-L1 interaction (PE-labeled human PD-L1-Ig binding to Jurkat cell line over-expressing human PD-1) (Homo sapiens, UniProt Q15116); test: Jurkat-PD-1 Cell Binding High-Content Screening Assay (CBA); conditions: Jurkat-hPD-1 cells, PE-labeled PD-L1-Ig 20 nM final; read-out: Jurkat HPD1 PDL1 IC50
T1 construct: expressed in transfected cells; host or cells: Jurkat
T1 sequence (Q15116 25-288): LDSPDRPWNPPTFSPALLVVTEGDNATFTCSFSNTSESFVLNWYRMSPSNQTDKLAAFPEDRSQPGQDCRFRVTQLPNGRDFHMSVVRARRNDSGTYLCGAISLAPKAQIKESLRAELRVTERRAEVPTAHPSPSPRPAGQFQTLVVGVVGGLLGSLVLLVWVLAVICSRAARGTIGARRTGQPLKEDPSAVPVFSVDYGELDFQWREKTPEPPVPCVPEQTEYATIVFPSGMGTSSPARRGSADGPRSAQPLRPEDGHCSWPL
Summary of the method: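 Binding of 20 nM (final) PE-tagged PD-L1-Ig to compound-pretreated Jurkat-hPD-1 cells was measured by high-content imaging after 1 h. Pretreatment ran 2 h at 37 °C in DMEM with 10% fetal calf serum.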

IC50 [nM]	Structure (SMILES)
40.7	CC[C@H](C)[C@@H]1NC(=O)[C@H](Cc2ccc(-c3ccccc3)cc2)NC(=O)[C@H](CC(C)C)NC(=O)[C@H](Cc2c[nH]c3ccccc23)NC(=O)[C@H](CC(=O)O)NC(=O)[C@H](Cc2ccc(C(=O)O)cc2)NC(=O)[C@H](Cc2ccc(OCC(=O)O)cc2)NC(=O)CSC[C@@H](C(=O)NCCOCCOCC(=O)NCCCCCCCCCCC(=O)O)NC(=O)[C@H](CO)NC(=O)[C@H](C(C)C)NC(=O)[C@H](CC2CCCCC2)NC(=O)[C@H](CCN)NC(=O)[C@@H](CC(C)C)NC(=O)[C@H](C)N(C)C1=O [Example 1069] ({CH2CO}-Y(Carboxymethyl)[Phe(4-COOH)]DWL[Bip]I[NMeA][dL][Dab][Cha]VSC[AEEA][Aun]-OH; thioether N-14)
39.2	CC[C@H](C)[C@@H]1NC(=O)[C@H](Cc2ccc(-c3ccccc3)cc2)NC(=O)[C@H](CC(C)C)NC(=O)[C@H](Cc2c[nH]c3ccccc23)NC(=O)[C@H](CC(=O)O)NC(=O)[C@H](Cc2ccc(C(=O)O)cc2)NC(=O)[C@H](Cc2ccc(OCC(=O)O)cc2)NC(=O)CSC[C@@H](C(=O)N[C@@H](CN)C(=O)NCCCCCCCCCCC(=O)O)NC(=O)[C@H](CO)NC(=O)[C@H](C(C)C)NC(=O)[C@H](CC2CCCCC2)NC(=O)[C@H](CCN)NC(=O)[C@@H](CC(C)C)NC(=O)[C@H](C)N(C)C1=O [Example 1070] ({CH2CO}-Y(Carboxymethyl)[Phe(4-COOH)]DWL[Bip]I[NMeA][dL][Dab][Cha]VSC[Dap][Aun]-OH; thioether N-14)
18.3	CC[C@H](C)[C@@H]1NC(=O)[C@H](Cc2ccc(-c3ccccc3)cc2)NC(=O)[C@H](CC(C)C)NC(=O)[C@H](Cc2c[nH]c3ccccc23)NC(=O)[C@H](CC(=O)O)NC(=O)[C@H](Cc2ccc(C(=O)O)cc2)NC(=O)[C@H](Cc2ccc(OCC(=O)O)cc2)NC(=O)CSC[C@@H](C(=O)N[C@@H](CCCN)C(=O)NCCCCCCCCCCC(=O)O)NC(=O)[C@H](CO)NC(=O)[C@H](C(C)C)NC(=O)[C@H](CC2CCCCC2)NC(=O)[C@H](CCN)NC(=O)[C@@H](CC(C)C)NC(=O)[C@H](C)N(C)C1=O [Example 1072] ({CH2CO}-Y(Carboxymethyl)[Phe(4-COOH)]DWL[Bip]I[NMeA][dL][Dab][Cha]VSC[Orn][Aun]-OH; thioether N-14)
43.4	CC[C@H](C)[C@@H]1NC(=O)[C@H](Cc2ccc(-c3ccccc3)cc2)NC(=O)[C@H](CC(C)C)NC(=O)[C@H](Cc2c[nH]c3ccccc23)NC(=O)[C@H](CC(=O)O)NC(=O)[C@H](Cc2ccc(C(=O)O)cc2)NC(=O)[C@H](Cc2ccc(OCC(=O)O)cc2)NC(=O)CSC[C@@H](C(=O)N[C@@H](CCCNC(=N)N)C(=O)NCCCCCCCCCCC(=O)O)NC(=O)[C@H](CO)NC(=O)[C@H](C(C)C)NC(=O)[C@H](CC2CCCCC2)NC(=O)[C@H](CCN)NC(=O)[C@@H](CC(C)C)NC(=O)[C@H](C)N(C)C1=O [Example 1074] ({CH2CO}-Y(Carboxymethyl)[Phe(4-COOH)]DWL[Bip]I[NMeA][dL][Dab][Cha]VSCR[Aun]-OH; thioether N-14)
20.2	CC[C@H](C)[C@@H]1NC(=O)[C@H](Cc2ccc(-c3ccccc3)cc2)NC(=O)[C@H](CC(C)C)NC(=O)[C@H](Cc2c[nH]c3ccccc23)NC(=O)[C@H](CC(=O)O)NC(=O)[C@H](Cc2ccc(C(=O)O)cc2)NC(=O)[C@H](Cc2ccc(OCC(=O)O)cc2)NC(=O)CSC[C@@H](C(=O)N[C@@H](Cc2c[nH]cn2)C(=O)NCCCCCCCCCCC(=O)O)NC(=O)[C@H](CO)NC(=O)[C@H](C(C)C)NC(=O)[C@H](CC2CCCCC2)NC(=O)[C@H](CCN)NC(=O)[C@@H](CC(C)C)NC(=O)[C@H](C)N(C)C1=O [Example 1075] ({CH2CO}-Y(Carboxymethyl)[Phe(4-COOH)]DWL[Bip]I[NMeA][dL][Dab][Cha]VSCH[Aun]-OH; thioether N-14)
16.5	CC[C@H](C)[C@@H]1NC(=O)[C@H](Cc2ccc(-c3ccccc3)cc2)NC(=O)[C@H](CC(C)C)NC(=O)[C@H](Cc2c[nH]c3ccccc23)NC(=O)[C@H](CC(=O)O)NC(=O)[C@H](Cc2ccc(C(=O)O)cc2)NC(=O)[C@H](Cc2ccc(OCC(=O)O)cc2)NC(=O)CSC[C@@H](C(=O)N[C@@H](CN)C(=O)NCCOCCOCC(=O)NCCCCCCCCCCC(=O)O)NC(=O)[C@H](CO)NC(=O)[C@H](C(C)C)NC(=O)[C@H](CC2CCCCC2)NC(=O)[C@H](CCN)NC(=O)[C@@H](CC(C)C)NC(=O)[C@H](C)N(C)C1=O [Example 1076] ({CH2CO}-Y(Carboxymethyl)[Phe(4-COOH)]DWL[Bip]I[NMeA][dL][Dab][Cha]VSC[Dap][AEEA][Aun]-OH; thioether N-14)
18.3	CC[C@H](C)[C@@H]1NC(=O)[C@H](Cc2ccc(-c3ccccc3)cc2)NC(=O)[C@H](CC(C)C)NC(=O)[C@H](Cc2c[nH]c3ccccc23)NC(=O)[C@H](CC(=O)O)NC(=O)[C@H](Cc2ccc(C(=O)O)cc2)NC(=O)[C@H](Cc2ccc(OCC(=O)O)cc2)NC(=O)CSC[C@@H](C(=O)N[C@@H](CCN)C(=O)NCCOCCOCC(=O)NCCCCCCCCCCC(=O)O)NC(=O)[C@H](CO)NC(=O)[C@H](C(C)C)NC(=O)[C@H](CC2CCCCC2)NC(=O)[C@H](CCN)NC(=O)[C@@H](CC(C)C)NC(=O)[C@H](C)N(C)C1=O [Example 1077] ({CH2CO}-Y(Carboxymethyl)[Phe(4-COOH)]DWL[Bip]I[NMeA][dL][Dab][Cha]VSC[Dab][AEEA][Aun]-OH; thioether N-14)
16.1	CC[C@H](C)[C@@H]1NC(=O)[C@H](Cc2ccc(-c3ccccc3)cc2)NC(=O)[C@H](CC(C)C)NC(=O)[C@H](Cc2c[nH]c3ccccc23)NC(=O)[C@H](CC(=O)O)NC(=O)[C@H](Cc2ccc(C(=O)O)cc2)NC(=O)[C@H](Cc2ccc(OCC(=O)O)cc2)NC(=O)CSC[C@@H](C(=O)N[C@@H](CCCN)C(=O)NCCOCCOCC(=O)NCCCCCCCCCCC(=O)O)NC(=O)[C@H](CO)NC(=O)[C@H](C(C)C)NC(=O)[C@H](CC2CCCCC2)NC(=O)[C@H](CCN)NC(=O)[C@@H](CC(C)C)NC(=O)[C@H](C)N(C)C1=O [Example 1078] ({CH2CO}-Y(Carboxymethyl)[Phe(4-COOH)]DWL[Bip]I[NMeA][dL][Dab][Cha]VSC[Orn][AEEA][Aun]-OH; thioether N-14)
10.8	CC[C@H](C)[C@@H]1NC(=O)[C@H](Cc2ccc(-c3ccccc3)cc2)NC(=O)[C@H](CC(C)C)NC(=O)[C@H](Cc2c[nH]c3ccccc23)NC(=O)[C@H](CC(=O)O)NC(=O)[C@H](Cc2ccc(C(=O)O)cc2)NC(=O)[C@H](Cc2ccc(OCC(=O)O)cc2)NC(=O)CSC[C@@H](C(=O)N[C@@H](CCCCN)C(=O)NCCOCCOCC(=O)NCCCCCCCCCCC(=O)O)NC(=O)[C@H](CO)NC(=O)[C@H](C(C)C)NC(=O)[C@H](CC2CCCCC2)NC(=O)[C@H](CCN)NC(=O)[C@@H](CC(C)C)NC(=O)[C@H](C)N(C)C1=O [Example 1079] ({CH2CO}-Y(Carboxymethyl)[Phe(4-COOH)]DWL[Bip]I[NMeA][dL][Dab][Cha]VSCK[AEEA][Aun]-OH; thioether N-14)
18.6	CC[C@H](C)[C@@H]1NC(=O)[C@H](Cc2ccc(-c3ccccc3)cc2)NC(=O)[C@H](CC(C)C)NC(=O)[C@H](Cc2c[nH]c3ccccc23)NC(=O)[C@H](CC(=O)O)NC(=O)[C@H](Cc2ccc(C(=O)O)cc2)NC(=O)[C@H](Cc2ccc(OCC(=O)O)cc2)NC(=O)CSC[C@@H](C(=O)N[C@@H](CCCNC(=N)N)C(=O)NCCOCCOCC(=O)NCCCCCCCCCCC(=O)O)NC(=O)[C@H](CO)NC(=O)[C@H](C(C)C)NC(=O)[C@H](CC2CCCCC2)NC(=O)[C@H](CCN)NC(=O)[C@@H](CC(C)C)NC(=O)[C@H](C)N(C)C1=O [Example 1080] ({CH2CO}-Y(Carboxymethyl)[Phe(4-COOH)]DWL[Bip]I[NMeA][dL][Dab][Cha]VSCR[AEEA][Aun]-OH; thioether N-14)
10.1	CC(C)C[C@@H]1NC(=O)[C@H](Cc2c[nH]c3ccccc23)NC(=O)[C@H](CC(=O)O)NC(=O)[C@H](Cc2ccncc2)NC(=O)[C@H](Cc2ccc(OCC(=O)O)cc2)NC(=O)CSC[C@@H](C(=O)NCCOCCOCC(=O)NCCCCCCCCCCC(=O)O)NC(=O)[C@H](CO)NC(=O)[C@H](C(C)C)NC(=O)[C@H](CC2CCCCC2)NC(=O)[C@H](CCN)NC(=O)[C@@H](CC(C)C)NC(=O)[C@H](C)N(C)C(=O)[C@H](C(C)C)NC(=O)[C@H](Cc2ccc(-c3ccccc3)cc2)NC1=O [Example 1081] ({CH2CO}-Y(Carboxymethyl)[4Pal]DWL[Bip]V[NMeA][dL][Dab][Cha]VSC[AEEA][Aun]-OH; thioether N-14)
28.2	CC(C)C[C@@H]1NC(=O)[C@H](Cc2c[nH]c3ccccc23)NC(=O)[C@H](CC(=O)O)NC(=O)[C@H](Cc2ccncc2)NC(=O)[C@H](Cc2ccc(OCC(=O)O)cc2)NC(=O)CSC[C@@H](C(=O)N[C@@H](CN)C(=O)NCCCCCCCCCCC(=O)O)NC(=O)[C@H](CO)NC(=O)[C@H](C(C)C)NC(=O)[C@H](CC2CCCCC2)NC(=O)[C@H](CCN)NC(=O)[C@@H](CC(C)C)NC(=O)[C@H](C)N(C)C(=O)[C@H](C(C)C)NC(=O)[C@H](Cc2ccc(-c3ccccc3)cc2)NC1=O [Example 1082] ({CH2CO}-Y(Carboxymethyl)[4Pal]DWL[Bip]V[NMeA][dL][Dab][Cha]VSC[Dap][Aun]-OH; thioether N-14)
15.7	CC(C)C[C@@H]1NC(=O)[C@H](Cc2c[nH]c3ccccc23)NC(=O)[C@H](CC(=O)O)NC(=O)[C@H](Cc2ccncc2)NC(=O)[C@H](Cc2ccc(OCC(=O)O)cc2)NC(=O)CSC[C@@H](C(=O)N[C@@H](CCN)C(=O)NCCCCCCCCCCC(=O)O)NC(=O)[C@H](CO)NC(=O)[C@H](C(C)C)NC(=O)[C@H](CC2CCCCC2)NC(=O)[C@H](CCN)NC(=O)[C@@H](CC(C)C)NC(=O)[C@H](C)N(C)C(=O)[C@H](C(C)C)NC(=O)[C@H](Cc2ccc(-c3ccccc3)cc2)NC1=O [Example 1083] ({CH2CO}-Y(Carboxymethyl)[4Pal]DWL[Bip]V[NMeA][dL][Dab][Cha]VSC[Dab][Aun]-OH; thioether N-14)
